Laboratory results taken from US20240116985A1, “STAPLED PEPTIDES AND METHODS THEREOF” (priority 2020, published 2024).
Read-outs that look alike come from different tables or passages of the source.

Key:
[1] = biological target: T1, full-length beta-Catenin (Uniprot ID P35222) (Homo sapiens, UniProt P35222); test: Fluorescence polarization IC50 (beta-catenin / 5FAM-TCF4 10-53 competition); assay type: binding; conditions: fluorescence polarization
T1 construct: 10 nM full-length beta-Catenin (Uniprot ID P35222)
T1 sequence (P35222 1-781): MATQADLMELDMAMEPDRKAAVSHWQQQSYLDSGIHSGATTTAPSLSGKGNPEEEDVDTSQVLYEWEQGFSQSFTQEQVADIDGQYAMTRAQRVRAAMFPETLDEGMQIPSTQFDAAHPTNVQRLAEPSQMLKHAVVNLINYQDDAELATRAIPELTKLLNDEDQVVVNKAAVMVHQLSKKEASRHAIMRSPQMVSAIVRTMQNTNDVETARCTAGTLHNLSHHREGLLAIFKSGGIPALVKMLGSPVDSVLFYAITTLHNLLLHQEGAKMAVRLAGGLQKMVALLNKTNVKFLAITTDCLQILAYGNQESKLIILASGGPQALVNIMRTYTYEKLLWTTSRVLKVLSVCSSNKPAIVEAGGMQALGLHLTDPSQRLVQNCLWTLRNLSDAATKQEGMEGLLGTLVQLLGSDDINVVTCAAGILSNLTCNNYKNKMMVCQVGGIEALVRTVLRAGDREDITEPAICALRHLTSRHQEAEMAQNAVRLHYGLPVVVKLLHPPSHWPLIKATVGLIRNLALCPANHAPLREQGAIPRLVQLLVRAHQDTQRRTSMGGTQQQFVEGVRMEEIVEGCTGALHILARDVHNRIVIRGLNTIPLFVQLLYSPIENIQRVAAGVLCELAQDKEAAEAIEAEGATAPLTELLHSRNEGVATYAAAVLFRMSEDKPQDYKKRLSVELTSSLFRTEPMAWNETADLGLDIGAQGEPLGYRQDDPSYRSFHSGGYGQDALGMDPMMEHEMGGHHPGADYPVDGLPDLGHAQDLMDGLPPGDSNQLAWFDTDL

[2] = biological target: T2, beta-catenin/TCF4 engagement (Homo sapiens, UniProt P35222); test: Nano-BRET target engagement assay (B-cat-Halo & TCF4-Luc in HEK293 cells); assay type: cell-based; conditions: absolute IC50; read-out: NanoBRET Abs IC50
T2 construct: expressed in transfected cells; host or cells: HEK293
T2 sequence (P35222 1-781): T1 sequence (P35222 1-781)

Structure (SMILES)	IC50 ([1]; read-out: beta-Catenin FP IC50) [µM]	IC50 [2] [µM]	IC50 ([1]; beta-catenin, read-out: FP EC50) [µM]
CCCC[C@@H]1NC(=O)[C@H](CC(=O)O)NC(=O)[C@]2(CC=CCCCC3(CCCC=CCCCOC(=O)N4CC[C@@](C(=O)N[C@@H](Cc5ccsc5)C(=O)N[C@@H](Cc5csc6ccccc56)C(=O)N[C@@H](CC(C)C)C(N)=O)(C4)NC(=O)[C@H](CC(C)C)NC(=O)[C@H](Cc4ccccc4)NC(=O)[C@H](C)NC(=O)[C@H](C)NC(=O)[C@H](CC(=O)O)NC(=O)[C@H](CC(=O)O)NC3=O)NC1=O)CCCN2C(C)=O (stereo partly drawn) [I-1411, Ac-PL3-Asp-nLeu-B5-Asp-Asp-Ala-Ala-Phe-Leu-PyrS2-3Thi-BztA-Leu-NH2]	0.109	47.1	0.109
CC(=O)N1CCC[C@]12CC=CCCCC1(CCCC=CCCCOC(=O)N3CC[C@@](C(=O)N[C@@H](Cc4ccccc4)C(=O)N[C@@H](Cc4csc5ccccc45)C(=O)N[C@@H](CCCCN)C(N)=O)(C3)NC(=O)[C@H](CC(C)C)NC(=O)[C@H](Cc3ccccc3)NC(=O)[C@H](C)NC(=O)[C@H](CCO)NC(=O)[C@H](CCC(N)=O)NC(=O)[C@H](CC(=O)O)NC1=O)NC(=O)[C@H](CC1CCCCC1)NC(=O)[C@H](CC(N)=O)NC2=O (stereo partly drawn) [I-2419, Ac-PL3-Asn-Cha-B5-Asp-Gln-Hse-Ala-Phe-Leu-PyrS2-Phe-BztA-Lys-NH2]	0.203	> 20	

The remaining lines, values ahead:

IC50 ([1]; read-out: beta-Catenin FP IC50) [µM]	IC50 [2] [µM]	IC50 ([1]; beta-catenin, read-out: FP EC50) [µM]	Structure (SMILES)
0.013	11.1		CC(=O)N1CCC[C@]12CC=CCCCC1(CCCC=CCCCOC(=O)N3CC[C@@](C(=O)N[C@@H](Cc4ccsc4)C(=O)N[C@@H](Cc4csc5ccccc45)C(=O)N[C@@H](CCC(N)=O)C(N)=O)(C3)NC(=O)[C@H](CC(C)C)NC(=O)[C@H](Cc3ccccc3)NC(=O)[C@H](C)NC(=O)[C@H](C)NC(=O)[C@H](Cc3cn(CC(=O)O)c4ccccc34)NC(=O)[C@H](CC(=O)O)NC1=O)NC(=O)[C@H](CC(C)(C)C)NC(=O)[C@H](CC(=O)O)NC2=O (stereo partly drawn) [I-1445, Ac-PL3-Asp-Npg-B5-Asp-1AcAW-Ala-Ala-Phe-Leu-PyrS2-3Thi-BztA-Gln-NH2]
0.026	> 20		CC(=O)N1CCC[C@]12CC=CCCCC1(CCCC=CCCCOC(=O)N3CC[C@@](C(=O)N[C@@H](Cc4ccsc4)C(=O)N[C@@H](Cc4csc5ccccc45)C(=O)N[C@@H](CCC(N)=O)C(N)=O)(C3)NC(=O)[C@H](CC(C)C)NC(=O)[C@H](Cc3ccccc3)NC(=O)[C@H](C)NC(=O)[C@H](C)NC(=O)[C@H](CCN(CC(=O)O)C(=O)C3CCN(C)CC3)NC(=O)[C@H](CC(=O)O)NC1=O)NC(=O)[C@H](CC(C)(C)C)NC(=O)[C@H](CC(=O)O)NC2=O (stereo partly drawn) [I-2245, Ac-PL3-Asp-Npg-B5-Asp-[4AcMePip]GAbu-Ala-Ala-Phe-Leu-PyrS2-3Thi-BztA-Gln-NH2]
0.0545	28.8		CC(=O)N1CCC[C@]12CC=CCCCC1(CCCC=CCCCOC(=O)N3CC[C@@](C(=O)N[C@@H](Cc4ccsc4)C(=O)N[C@@H](Cc4csc5ccccc45)C(=O)N[C@@H](CCC(N)=O)C(N)=O)(C3)NC(=O)[C@H](CC(C)C)NC(=O)[C@H](Cc3ccccc3)NC(=O)C(C)(C)NC(=O)[C@H](C)NC(=O)[C@H](CC(=O)O)NC(=O)[C@H](CC(=O)O)NC1=O)NC(=O)[C@H](CC(C)(C)C)NC(=O)[C@H](CC(=O)O)NC2=O (stereo partly drawn) [I-1178, Ac-PL3-Asp-Npg-B5-Asp-Asp-Ala-Aib-Phe-Leu-PyrS2-3Thi-BztA-Gln-NH2]
0.082	12.8		CC(=O)N1CCC[C@]12CC=CCCCC1(CCCC=CCCCOC(=O)N3CC[C@@](C(=O)N[C@@H](Cc4ccccc4C(F)(F)F)C(=O)N[C@@H](Cc4ccc5ccccc5c4)C(=O)N[C@@H](CCC(N)=O)C(N)=O)(C3)NC(=O)[C@H](CC(C)C)NC(=O)[C@H](Cc3ccccc3)NC(=O)[C@H](C)NC(=O)[C@H](C)NC(=O)[C@H](Cc3cccc(C(=O)O)c3)NC(=O)[C@H](CC(=O)O)NC1=O)NC(=O)[C@H](CC(C)(C)C)NC(=O)[C@H](CC(=O)O)NC2=O (stereo partly drawn) [I-2460, Ac-PL3-Asp-Npg-B5-Asp-3COOHF-Ala-Ala-Phe-Leu-PyrS2-2F3MeF-2NapA-Gln-NH2]
